Experimental data published in patent US7148204B2, “Antisense modulation of bcl-x expression” (Isis Pharmaceuticala, Inc., priority 1998, dated 2006).
In the oligonucleotide strings, read from the 5' end, every base follows the letter of its sugar. An asterisk marks phosphorothioate; unmarked linkages are phosphodiester. Other units and linkages are bracketed, terminal groups are in braces. A string of capitals states the bases alone. e = 2'-O-(2-methoxyethyl) (MOE); [5mC] = 5-methylcytosine; d = 2'-deoxy (DNA)

Legend:
Type in all cases: cell-based, human
[1] = system: total bcl-x mRNA; assay: RNase protection assay, total bcl-x mRNA in A549 cells; design: % CONTROL total bcl-x: concentration or dose not given beside the values; details: RPA
Excerpt: (§1) The ribonuclease (RNase) protection assay is a sensitive and specific method for quantitating expression levels (Zinn, et al., Cell, 1983, 34:865–79). The method is based on the hybridization of a target RNA to an in vitro transcribed ^32P-labeled anti-sense RNA probe from a DNA template. RNase treatment follows, resulting in degradation of single-stranded RNA and excess probe. The probe and target RNA are resolved by denaturing polyacrylamide gel electrophoresis with the “protected” probe visualized using autoradiography or beta imaging equipment. Template sets can be purchased (PharMingen Inc., San Diego Calif.) which contain a series of biologically relevant templates, each of distinct length and each representing a sequence in a distinct mRNA species. Each template set is capable of detecting up to 11 unique gene messages in a single reaction mix in addition to one or more housekeeping genes, L32 and GAPDH, which serve as internal controls. These template sets allow for multiple determinations to be made from a single sample. Multi-probe RPA can be performed on total RNA preparations derived by standard methods, without further purification of poly-A+ RNA.
(§2) Oligonucleotides were evaluated for their respective effects on bcl-xs and bcl-xl mRNA levels along with total bcl-x mRNA levels, using the RIBOQUANT™ RNase protection kit (Pharmingen, San Diego Calif.). All assays were performed according to manufacturer's protocols. Briefly, multi-probe DNA template sets were used to generate antisense RNA transcripts radiolabeled with […]. The template set used for apoptosis genes was the human hAPO-2 set. These radiolabeled probes were hybridized overnight with typically 10 μg of total cellular RNA. The reaction mixture was then digested with single-strand RNases to generate the protected fragments which were electrophoresed through a 5% acrylamide/urea gel. Protected bands were visualized and quantitated using a PhosphorImager (Molecular Dynamics, Sunnyvale Calif.).
(§3) Human bcl-x has two forms, a long form known as bcl-xl and a short form known as bcl-xs. […] The protein of bcl-xl is similar in size and structure to bcl-2, and could inhibit cell death upon growth factor withdrawal. The protein of bcl-xs is 63 amino acids shorter than bcl-xl. It could inhibit the bcl-2 function, thus promoting programmed cell death (apoptosis). Oligonucleotides were evaluated for their respective effects on bcl-xs and bcl-xl mRNA levels along with total bcl-x mRNA levels, using the RIBOQUANT™ RNase protection kit (Pharmingen, San Diego Calif.). All assays were performed according to manufacturer's protocols.

[2] = system: bcl-xs/bcl-xl mRNA ratio; assay: RNase protection assay, bcl-xs/bcl-xl mRNA ratio in A549 cells; details: A549 cells, RPA; for bcl-xs/bcl-xl (%): no oligo 17.56; for bcl-xs/bcl-xl* (change from the control ratio 17.56) / bcl-xs/bcl-xl Fold difference: no oligo = 1; for bcl-xs/bcl-xl Fold difference: 200 nM
Excerpt: as §1, §2, §3
(§4) These oligonucleotides were tested for their inhibitory effects on bcl-xl and bcl-xs mRNA levels in A549 cells, as detected by RPA analysis. Oligonucleotide concentration was 200 nM.

[3] = system: bcl-xl mRNA; assay: RNase protection assay, bcl-xl mRNA in A549 cells; details: RPA
Excerpt: as §1, §2, §3, §4

[4] = system: bcl-xs mRNA; assay: RNase protection assay, bcl-xs mRNA in A549 cells; design: concentration or dose not given beside the values; details: RPA
Excerpt: as §1, §2, §3

[5] = system: bcl-xs/bcl-xl transcript ratio; assay: PNA analogs, bcl-x splicing in electroporated HeLa cells; details: electroporation
Excerpt: A peptide-nucleic acid (PNA) oligonucleotide having the ISIS 22783 sequence (SEQ ID NO: 33) was synthesized as described in Example 4 hereinabove. The oligonucleotide (ISIS 32262) was uniformly modified with a PNA backbone throughout. A 5-base mismatch compound (ISIS 32263, SEQ ID NO: 52) was also synthesized as a full PNA. HeLa cells were transfected with these compounds by electroporation with a 200V pulse using a BTX Electro Cell Manipulator 600 (Genetronics, San Diego Calif.) and RNA was isolated 24 hours later.

22784 (antisense e[5mC]*e[5mC]*eA*eG*e[5mC]*e[5mC]*eG*e[5mC]*e[5mC]*eG*eT*eT*e[5mC]*eT*e[5mC]*e[5mC]*eT*eG*eG*eA) [compound 22784]
% CONTROL total bcl-x [1]: 92% | bcl-xs/bcl-xl (%) [2]: 48.63% | bcl-xs/bcl-xl* (change from the control ratio 17.56) [2]: 2.77 | % CONTROL bcl-xl [3]: 72% | % CONTROL bcl-xs [4]: 204%

106254 (antisense TCATTCAGGTAAGTGGCCAT; all 2'-MOE, all phosphorothioate, methylation of C not given here) [compound 106254]
bcl-xs/bcl-xl Fold difference [2]: 13 fold | % CONTROL bcl-xl ([3]; 200 nM): 80%

22783 (antisense e[5mC]*eT*eG*eG*eA*eT*e[5mC]*e[5mC]*eA*eA*eG*eG*e[5mC]*eT*e[5mC]*eT*eA*eG*eG*eT) [compound 22783]
% CONTROL total bcl-x [1]: 120% | bcl-xs/bcl-xl Fold difference [2]: 18 fold | bcl-xs/bcl-xl (%) [2]: 293.10% | bcl-xs/bcl-xl* (change from the control ratio 17.56) [2]: 16.69 | % CONTROL bcl-xl [3]: 35% | % CONTROL bcl-xl ([3]; 200 nM): 39% | % CONTROL bcl-xs [4]: 620%

106252 (antisense GTGGTCATTCAGGTAAGTGG; all 2'-MOE, all phosphorothioate, methylation of C not given here) [compound 106252]
bcl-xs/bcl-xl Fold difference [2]: 23 fold | % CONTROL bcl-xl ([3]; 200 nM): 72%

16972 (antisense eT*e[5mC]*eA*e[5mC]*eG*dT*dT*dG*dG*dC*dG*dC*dT*dT*dA*eG*e[5mC]*e[5mC]*eA*eT) [compound 16972]
% CONTROL total bcl-x [1]: 87% | bcl-xs/bcl-xl (%) [2]: 11.68% | bcl-xs/bcl-xl* (change from the control ratio 17.56) [2]: 0.67 | % CONTROL bcl-xl [3]: 91% | % CONTROL bcl-xs [4]: 60%

106250 (antisense CTAGGTGGTCATTCAGGTAA; all 2'-MOE, all phosphorothioate, methylation of C not given here) [compound 106250]
bcl-xs/bcl-xl Fold difference [2]: 21 fold | % CONTROL bcl-xl ([3]; 200 nM): 40%

106260 (antisense GTGGCCATCCAAGCTGCGAT; all 2'-MOE, all phosphorothioate, methylation of C not given here) [compound 106260]
bcl-xs/bcl-xl Fold difference [2]: 12 fold | % CONTROL bcl-xl ([3]; 200 nM): 66%

106253 (antisense GGTCATTCAGGTAAGTGGCC; all 2'-MOE, all phosphorothioate, methylation of C not given here) [compound 106253]
bcl-xs/bcl-xl Fold difference [2]: 19 fold | % CONTROL bcl-xl ([3]; 200 nM): 48%

ISIS 32262: PNA oligonucleotide having the ISIS 22783 sequence (SEQ ID NO: 33), PNA backbone throughout (CTGGATCCAAGGCTCTAGGT; all peptide nucleic acid (PNA))
Ratio (approx.) of bcl-xs/bcl-xl ([5]; 2 μM): ~2.0 | Ratio (approx.) of bcl-xs/bcl-xl ([5]; 5 μM): ~3.5 | Ratio (approx.) of bcl-xs/bcl-xl ([5]; 10 μM): ~6.5 | Ratio (approx.) of bcl-xs/bcl-xl ([5]; 15 μM): ~7.75 | Ratio (approx.) of bcl-xs/bcl-xl ([5]; 25 μM): ~11.5 | Ratio (approx.) of bcl-xs/bcl-xl ([5]; RNA 24 hours later, 1 μM): ~1.5

106255 (antisense ATTCAGGTAAGTGGCCATCC; all 2'-MOE, all phosphorothioate, methylation of C not given here) [compound 106255]
bcl-xs/bcl-xl Fold difference [2]: 17 fold | % CONTROL bcl-xl ([3]; 200 nM): 64%

23174 (antisense e[5mC]*e[5mC]*eG*eG*e[5mC]*e[5mC]*eA*e[5mC]*eA*eG*eT*e[5mC]*eA*eT*eG*e[5mC]*e[5mC]*e[5mC]*eG*eT) [compound 23174]
% CONTROL total bcl-x [1]: 66% | bcl-xs/bcl-xl (%) [2]: 14.93% | bcl-xs/bcl-xl* (change from the control ratio 17.56) [2]: 0.85 | % CONTROL bcl-xl [3]: 67% | % CONTROL bcl-xs [4]: 56%

16968 (antisense e[5mC]*eT*e[5mC]*e[5mC]*eG*dA*dT*dG*dT*dC*dC*dC*dC*dT*dC*eA*eA*eA*eG*eT) [compound 16968]
% CONTROL total bcl-x [1]: 21% | bcl-xs/bcl-xl (%) [2]: 20.18% | bcl-xs/bcl-xl* (change from the control ratio 17.56) [2]: 1.15 | % CONTROL bcl-xl [3]: 15% | % CONTROL bcl-xs [4]: 20%

106251 (antisense AGGTGGTCATTCAGGTAAGT; all 2'-MOE, all phosphorothioate, methylation of C not given here) [compound 106251]
bcl-xs/bcl-xl Fold difference [2]: 25 fold | % CONTROL bcl-xl ([3]; 200 nM): 57%

ISIS 32263: 5-base mismatch compound, SEQ ID NO: 52, full PNA (CTGGTTACACGACTCCAGGT; all peptide nucleic acid (PNA)) [reference compound]
Ratio (approx.) of bcl-xs/bcl-xl ([5]; 2 μM): ~0.75 | Ratio (approx.) of bcl-xs/bcl-xl ([5]; 5 μM): ~0.75 | Ratio (approx.) of bcl-xs/bcl-xl ([5]; 10 μM): ~1.0 | Ratio (approx.) of bcl-xs/bcl-xl ([5]; 15 μM): ~0.75 | Ratio (approx.) of bcl-xs/bcl-xl ([5]; 25 μM): ~1.0 | Ratio (approx.) of bcl-xs/bcl-xl ([5]; RNA 24 hours later, 1 μM): ~1.5

23172 (antisense eG*eT*eT*e[5mC]*e[5mC]*eT*eG*eG*e[5mC]*e[5mC]*e[5mC]*eT*eT*eT*e[5mC]*eG*eG*e[5mC]*eT*e[5mC]) [compound 23172]
% CONTROL total bcl-x [1]: 79% | bcl-xs/bcl-xl (%) [2]: 19.38% | bcl-xs/bcl-xl* (change from the control ratio 17.56) [2]: 1.10 | % CONTROL bcl-xl [3]: 77% | % CONTROL bcl-xs [4]: 84%

106257 (antisense AGGTAAGTGGCCATCCAAGC; all 2'-MOE, all phosphorothioate, methylation of C not given here) [compound 106257]
bcl-xs/bcl-xl Fold difference [2]: 13 fold | % CONTROL bcl-xl ([3]; 200 nM): 78%

22785 (antisense eG*e[5mC]*e[5mC]*eG*e[5mC]*e[5mC]*eG*eT*eT*e[5mC]*eT*e[5mC]*e[5mC]*eT*eG*eG*eA*eT*e[5mC]*e[5mC]) [compound 22785]
% CONTROL total bcl-x [1]: 83% | bcl-xs/bcl-xl (%) [2]: 80.14% | bcl-xs/bcl-xl* (change from the control ratio 17.56) [2]: 4.56 | % CONTROL bcl-xl [3]: 53% | % CONTROL bcl-xs [4]: 248%

26080 (antisense CTGGTTACACGACTCCAGGT; all 2'-MOE, all phosphorothioate, methylation of C not given here) [compound 26080]
bcl-xs/bcl-xl Fold difference [2]: 2 fold | % CONTROL bcl-xl ([3]; 200 nM): 77%

106259 (antisense AAGTGGCCATCCAAGCTGCG; all 2'-MOE, all phosphorothioate, methylation of C not given here) [compound 106259]
bcl-xs/bcl-xl Fold difference [2]: 15 fold | % CONTROL bcl-xl ([3]; 200 nM): 96%

106256 (antisense TCAGGTAAGTGGCCATCCAA; all 2'-MOE, all phosphorothioate, methylation of C not given here) [compound 106256]
bcl-xs/bcl-xl Fold difference [2]: 15 fold | % CONTROL bcl-xl ([3]; 200 nM): 82%

26066 (antisense ATCCAAGGCTCTAGGTGGTC; all 2'-MOE, all phosphorothioate, methylation of C not given here) [compound 26066]
bcl-xs/bcl-xl Fold difference [2]: 37 fold | % CONTROL bcl-xl ([3]; 200 nM): 24%

106249 (antisense CTCTAGGTGGTCATTCAGGT; all 2'-MOE, all phosphorothioate, methylation of C not given here) [compound 106249]
bcl-xs/bcl-xl Fold difference [2]: 23 fold | % CONTROL bcl-xl ([3]; 200 nM): 47%

106258 (antisense GTAAGTGGCCATCCAAGCTG; all 2'-MOE, all phosphorothioate, methylation of C not given here) [compound 106258]
bcl-xs/bcl-xl Fold difference [2]: 21 fold | % CONTROL bcl-xl ([3]; 200 nM): 66%

105751 (antisense TGGTTCTTACCCAGCCGCCG; all 2'-MOE, all phosphorothioate, methylation of C not given here) [compound 105751]
bcl-xs/bcl-xl Fold difference [2]: 45 fold | % CONTROL bcl-xl ([3]; 200 nM): 34%
